# Key:
# MCF7 CARM1 KO cells = assay: Quantitative MS of ADMA-containing peptides in MCF7 CARM1 KO cells expressing CARM1 28-608 or CARM1 140-608, and in CARM1 KO; format: cell-based, human
# MCF7 cells = assay: Quantitative nanoLC-MS/MS (TMT) of ADMA-containing peptides, CARM1 KO vs parental; format: cell-based, human; design: Fold change KO/WT: scale not given here
# [1] = CARM1 140-608 versus WT, difference of mean log2 values
# [2] = CARM1 KO versus WT, difference of mean log2 values
# [3] = CARM1 KO vs wild type MCF7 cells, 3 biological replicates each
# [4] = mean, CARM1 140-608 versus WT (log2 scale)
# [5] = mean, CARM1 KO versus WT (log2 scale)
# [6] = MCF7 CARM1 knockout vs wild type, 3 biological replicates each, values are on log2 scale
# [7] = log2 scale ratio, mean of n = 3
# [8] = ADMA-containing peptide, MCF7, CARM1 knockout (KO1-3) vs wild type (WT1-3), TMT 6-plex experiment #1
# [9] = ratio on log2 scale, mean of 3 replicates
# [10] = MCF7, CARM1 knockout vs wild type, n = 3 each
# [11] = CARM1 140-608 vs WT, mean of 3 replicates (log2 scale)
# [12] = KO vs WT, mean of 3 replicates (log2 scale)
# [13] = MCF7, CARM1 KO (KO1-KO3) vs wild type (WT1-WT3)
# [14] = difference of log2 means, CARM1 140-608 vs WT
# [15] = difference of log2 means, KO vs WT
# [16] = MCF7, CARM1 KO vs WT, three biological replicates each
# [17] = CARM1 140-608 vs WT, mean of 3 replicates, log2
# [18] = KO vs WT, mean of 3 replicates, log2
# [19] = ADMA-containing peptide, CARM1 knockout (KO) vs wild type (WT) MCF7 cells, 6-plex TMT experiment #1, three biological replicates each, sheet "MCF7"
substance,measurement,setting,value
GSGTGIYSNAAPPPVTYQGNLYrPLLR,CARM1 140-608/WT,MCF7 CARM1 KO cells; [1],1.554
same,KO/WT,MCF7 CARM1 KO cells; [2],-1.424
same,Fold change KO/WT,MCF7 cells; [3],-2.788
RAPVPVrGGPK,CARM1 140-608/WT,MCF7 CARM1 KO cells; [4],0.3236
same,KO/WT,MCF7 CARM1 KO cells; [5],1.039
same,Fold change KO/WT,MCF7 cells; [6],0.8174
GrGTLTrGAFVGATAAPGYIAPGYGTPYGYSTAAPAYGLPK,CARM1 140-608/WT,MCF7 CARM1 KO cells; [7],-0.05087
same,KO/WT,MCF7 CARM1 KO cells; [7],0.2558
same,Fold change KO/WT,MCF7 cells; [8],0.06714
SHGYKPHFVPNFNGPNAIrQFQPNQINENWK,CARM1 140-608/WT,MCF7 CARM1 KO cells; [9],-1.237
same,KO/WT,MCF7 CARM1 KO cells; [9],-2.033
same,Fold change KO/WT,MCF7 cells; [10],-2.033
GAPHFrFIIAGR,CARM1 140-608/WT,MCF7 CARM1 KO cells; [7],-0.6361
same,KO/WT,MCF7 CARM1 KO cells; [7],-0.5643
same,Fold change KO/WT,MCF7 cells; [8],-0.1995
SIVPTMHYQDSLPrLPIPK,CARM1 140-608/WT,MCF7 CARM1 KO cells; [9],-1.626
same,KO/WT,MCF7 CARM1 KO cells; [9],-2.513
same,Fold change KO/WT,MCF7 cells; [10],-2.513
FrLSLFSDLPEDTELQR,CARM1 140-608/WT,MCF7 CARM1 KO cells; [11],-2.025
same,KO/WT,MCF7 CARM1 KO cells; [12],-2.692
same,Fold change KO/WT,MCF7 cells; [13],-2.692
VSTSGPrAFSSrSYTSGPGSR,CARM1 140-608/WT,MCF7 CARM1 KO cells; [14],-3.492
same,KO/WT,MCF7 CARM1 KO cells; [15],-3.7435
same,Fold change KO/WT,MCF7 cells; [6],-3.7435
QIrFSQGQQLVTK,CARM1 140-608/WT,MCF7 CARM1 KO cells; [9],-1.837
same,KO/WT,MCF7 CARM1 KO cells; [9],-2.537
same,Fold change KO/WT,MCF7 cells; [16],-2.537
SGFAATSQPGPrLPFIQHSQNPR,CARM1 140-608/WT,MCF7 CARM1 KO cells; [4],-0.196
same,KO/WT,MCF7 CARM1 KO cells; [5],-1.374
same,Fold change KO/WT,MCF7 cells; [10],-1.049
KYPLPPPSGrYNWN,CARM1 140-608/WT,MCF7 CARM1 KO cells; [1],-1.833
same,KO/WT,MCF7 CARM1 KO cells; [2],-2.65
same,Fold change KO/WT,MCF7 cells; [3],-1.439
EPFLSrDPFHSLK,CARM1 140-608/WT,MCF7 CARM1 KO cells; [11],0.7405
same,KO/WT,MCF7 CARM1 KO cells; [12],1.534
same,Fold change KO/WT,MCF7 cells; [13],2.308
LLPAPrAYLVPENFR,CARM1 140-608/WT,MCF7 CARM1 KO cells; [1],-1.125
same,KO/WT,MCF7 CARM1 KO cells; [2],-0.8691
same,Fold change KO/WT,MCF7 cells; [3],-0.8691
QTGSPGMIYSTrYGSPK,CARM1 140-608/WT,MCF7 CARM1 KO cells; [4],-2.435
same,KO/WT,MCF7 CARM1 KO cells; [5],-3.403
same,Fold change KO/WT,MCF7 cells; [6],-3.282
FPAGArYAGAGGLER,CARM1 140-608/WT,MCF7 CARM1 KO cells; [17],-0.8137
same,KO/WT,MCF7 CARM1 KO cells; [18],-1.235
same,Fold change KO/WT,MCF7 cells; [16],-0.6954
QSSATSSFGGLGGGSVrFGPGVAFrAPSIHGGSGGR,CARM1 140-608/WT,MCF7 CARM1 KO cells; [14],-1.331
same,KO/WT,MCF7 CARM1 KO cells; [15],-1.828
same,Fold change KO/WT,MCF7 cells; [6],-1.828
GGrGPFPLQVVSVGGPAR,CARM1 140-608/WT,MCF7 CARM1 KO cells; [9],-0.1124
same,KO/WT,MCF7 CARM1 KO cells; [9],-0.2975
same,Fold change KO/WT,MCF7 cells; [10],-0.2975
SVVESSAPGANNLQVNALVArLPLLLPrAPR,CARM1 140-608/WT,MCF7 CARM1 KO cells; [11],-1.353
same,KO/WT,MCF7 CARM1 KO cells; [12],-2.886
same,Fold change KO/WT,MCF7 cells; [13],-2.886
GrFPGAVPGGDrFPGPAGPGGPPPPFPGNLIK,CARM1 140-608/WT,MCF7 CARM1 KO cells; [9],-1.24
same,KO/WT,MCF7 CARM1 KO cells; [9],-2.782
same,Fold change KO/WT,MCF7 cells; [10],-2.782
MGLLSPSGIGGVSPrHALTSPSLGGQGR,CARM1 140-608/WT,MCF7 CARM1 KO cells; [11],-0.809
same,KO/WT,MCF7 CARM1 KO cells; [12],-1.616
same,Fold change KO/WT,MCF7 cells; [13],-1.616
QALGSPLAGISTrLPGPGEPVPGPAGPAQFIELrHNVQK,CARM1 140-608/WT,MCF7 CARM1 KO cells; [14],-1.36
same,KO/WT,MCF7 CARM1 KO cells; [15],-2.458
same,Fold change KO/WT,MCF7 cells; [6],-2.458
DYFPPGDFPGPPPAPFAMrNVYPPrGFPPYLPPrPGFFPPPPHSEGR,CARM1 140-608/WT,MCF7 CARM1 KO cells; [9],-0.7489
same,KO/WT,MCF7 CARM1 KO cells; [9],-2.577
same,Fold change KO/WT,MCF7 cells; [10],-2.577
AYGQQYWGQPGNrGGYrNFYDR,CARM1 140-608/WT,MCF7 CARM1 KO cells; [4],-0.223
same,KO/WT,MCF7 CARM1 KO cells; [5],0.1923
same,Fold change KO/WT,MCF7 cells; [6],0.1386
NAALGPSEPrLALAPVGPrAAMSASSEGPrLALASPrPILAPLCTPEGQK,CARM1 140-608/WT,MCF7 CARM1 KO cells; [4],-2.352
same,KO/WT,MCF7 CARM1 KO cells; [5],-3.912
same,Fold change KO/WT,MCF7 cells; [6],-3.912
GArLPGPVSSAR,CARM1 140-608/WT,MCF7 CARM1 KO cells; [17],-1.788
same,KO/WT,MCF7 CARM1 KO cells; [18],-2.095
same,Fold change KO/WT,MCF7 cells; [16],-2.095
LHPQLHrAPIR,CARM1 140-608/WT,"MCF7 CARM1 KO cells; CARM1 140-608 versus WT, mean of three replicates (log2)",-0.07051
same,KO/WT,"MCF7 CARM1 KO cells; KO versus WT, mean of three replicates (log2)",1.076
same,Fold change KO/WT,MCF7 cells; [19],1.076
RPPTPGPDTSVSGPrLTLALAPGPPPPPSR,CARM1 140-608/WT,MCF7 CARM1 KO cells; [14],-1.4
same,KO/WT,MCF7 CARM1 KO cells; [15],-1.877
same,Fold change KO/WT,MCF7 cells; [19],-1.877
APPVrYCIPGER,CARM1 140-608/WT,MCF7 CARM1 KO cells; [9],-3.736
same,KO/WT,MCF7 CARM1 KO cells; [9],-5.161
same,Fold change KO/WT,MCF7 cells; [10],-5.161
GPPLArLPHDPGVFR,CARM1 140-608/WT,MCF7 CARM1 KO cells; [9],-1.527
same,KO/WT,MCF7 CARM1 KO cells; [9],-1.8
same,Fold change KO/WT,MCF7 cells; [10],-1.8
FIQPrPTLNQPPPPLIrPANSMPPR,CARM1 140-608/WT,MCF7 CARM1 KO cells; [11],0.9302
same,KO/WT,MCF7 CARM1 KO cells; [12],-1.231
same,Fold change KO/WT,MCF7 cells; [13],-1.957
GPPGGNrGGFQNrGGGSGGGGNYrGGFNR,CARM1 140-608/WT,MCF7 CARM1 KO cells; [4],0.1824
same,KO/WT,MCF7 CARM1 KO cells; [5],0.1614
same,Fold change KO/WT,MCF7 cells; [6],0.2458
GPPPFPGVPLMSTPMGGPVPPPIrYGPPPQLCGPFGPrPLPPPFGPGMrPPLGLREFAPGVPPGrR,CARM1 140-608/WT,MCF7 CARM1 KO cells; [14],-1.1204
same,KO/WT,MCF7 CARM1 KO cells; [15],-2.997
same,Fold change KO/WT,MCF7 cells; [19],-2.997
AQPFAQPPGPWPLSSPGPrLVFNR,CARM1 140-608/WT,MCF7 CARM1 KO cells; [9],-2.181
same,KO/WT,MCF7 CARM1 KO cells; [9],-4.994
same,Fold change KO/WT,MCF7 cells; [10],-4.7261

# Reference: PMC5458078, “Global mapping of CARM1 substrates defines enzyme specificity and substrate recognition” (Nature Communications, 2017)
